Reference: publication PMC9917099, “The Mycotoxin Patulin Inhibits the Mitochondrial Carnitine/Acylcarnitine Carrier (SLC25A20) by Interaction with Cys136 Implications for Human Health” (International Journal of Molecular Sciences, 2023)
Where “and” joins values, the source holds several entries; their conditions need not be identical. Equal values may be shown once.

Legend:
[1] = molecular target: T1, CAC in intact rat liver mitochondria (Rattus norvegicus, UniProt P97521); assay: Treatment of intact rat liver mitochondria, then solubilization, reconstitution in proteoliposomes and carnitine antiport assay; type: biochemical
T1 construct: the native protein extracted from rat liver mitochondria; from tissue; host or cells: rat liver mitochondria (Triton X-100 extract)
T1 sequence (P97521 1-301): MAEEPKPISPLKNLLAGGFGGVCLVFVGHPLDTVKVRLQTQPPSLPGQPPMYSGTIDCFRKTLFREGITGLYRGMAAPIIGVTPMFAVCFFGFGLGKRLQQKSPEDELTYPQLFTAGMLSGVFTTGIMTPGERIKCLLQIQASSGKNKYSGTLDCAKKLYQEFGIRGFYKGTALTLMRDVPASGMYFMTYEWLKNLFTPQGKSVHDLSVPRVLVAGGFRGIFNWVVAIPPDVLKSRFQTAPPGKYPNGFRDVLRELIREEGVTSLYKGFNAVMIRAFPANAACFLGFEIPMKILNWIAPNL
Experimental: Figure 1 Effect of Patulin on the native carnitine/acylcarnitine carrier (CAC). (A) Dose-response analysis of proteoliposomes reconstituted with the CAC extracted from rat liver mitochondria (0.3 mg of total proteins) and incubated with PAT at the indicated concentrations for 30 min, before measuring the transport activity by adding 0.1 mM [^3H] carnitine for 10 min as described in Materials and Methods. The percentage of residual activity compared to control, without PAT treatment, is reported. The values are the means ± SD from three independent experiments. (B) Rat liver mitochondria (5 mg/100 μL) were incubated or not (control) for 60 min, with Patulin (60 μM) or GSH (5 mM) as indicated. Upon treatment, the unreacted drug was removed by washing the mitochondria in PBS 1X and then 0.3 mg mitochondria were solubilized by 3% TX-100, 10 mM PIPES pH 7.0 and reconstituted in proteoliposomes for transport assay as indicated in (A) and Materials and Methods. Black and white bars indicate without or with the addition of 5 mM dithioerythritol (DTE) 1 min before the transport assay to aliquots of each sample.
The effect of PAT on the CAC at 60 µM concentration was also detected in intact rat liver mitochondria. Upon treatment (60 min), the mitochondria were solubilized in Triton X-100 and 0.3 mg of mitochondrial extract were reconstituted in proteoliposomes for testing the transport activity of CAC (see above). […] Aliquots of intact mitochondria incubated with PAT were treated also with reduced GSH to verify whether this physiological SH-reducing agent was able to reverse the mycotoxin-protein interactions.
The recombinant CAC proteins were reconstituted in proteoliposomes as previously described. Rat liver mitochondria after purification, using the standard procedure of cell disruption and differential centrifugation were solubilized with 3% Triton X-100 in a PIPES buffer (10 mM) at pH 7.0. Herein, the mitochondrial extract (0.3 mg) were reconstituted in the liposomes as above described for the mitochondrial CAC recombinant protein, in the absence of reducing agents. The concentration of intraliposomal carnitine was 15 mM in all samples.
For the transport assay, 550 μL of proteoliposomes were passed through a Sephadex G-75 column in order to remove the external substrate. Six hundred μL of the turbid eluate were collected, divided into samples of 100 μL each, and used for transport measurement by the inhibitor-stop method. Transport was started as homoexchange by adding 0.1 mM [^3H]-carnitine to proteoliposomes containing 15 mM carnitine and, at the indicated time interval, stopped by 1.5 mM NEM (N-ethylmaleimide). The inhibitor was added together with the labelled substrate at time zero in the control samples. After finishing the transport reaction, the external radiolabel substrate was removed by gel filtration chromatography (Sephadex G-75), and the intraliposomal radioactivity was measured by liquid scintillation. Transport was measured at 25 °C. The experimental values were corrected by subtracting the controls. Transport rates were measured in 10 min, i.e., within the initial linear range of the time course.

[2] = molecular target: T2, native mitochondrial carnitine/acylcarnitine carrier (CAC, SLC25A20) (Rattus norvegicus, UniProt P97521); assay: [3H]-carnitine/carnitine antiport in proteoliposomes reconstituted with native CAC extracted from rat liver mitochondria; type: biochemical; conditions: PAT incubated 30 min, 0.1 mM [3H]carnitine 10 min, read-out: IC50 of CAC inhibition
T2 construct: the native protein extracted from rat liver mitochondria; from tissue; host or cells: rat liver mitochondria (Triton X-100 extract)
T2 sequence (P97521 1-301): T1 sequence (P97521 1-301)
Experimental: For studying the effect of PAT on the native mitochondrial CAC, a dose–response analysis on the rat liver-extracted mitochondria was performed. Aliquots of the mitochondrial extract (0.3 mg of total proteins) were reconstituted in liposomes and incubated for 30 min with several concentrations of PAT before starting the transport assay as [^3H]-carnitine/carnitine antiport (see Materials and Methods).
Figure 1 Effect of Patulin on the native carnitine/acylcarnitine carrier (CAC). (A) Dose-response analysis of proteoliposomes reconstituted with the CAC extracted from rat liver mitochondria (0.3 mg of total proteins) and incubated with PAT at the indicated concentrations for 30 min, before measuring the transport activity by adding 0.1 mM [^3H] carnitine for 10 min as described in Materials and Methods. The percentage of residual activity compared to control, without PAT treatment, is reported. […]
For the transport assay, 550 μL of proteoliposomes were passed through a Sephadex G-75 column in order to remove the external substrate. […] After finishing the transport reaction, the external radiolabel substrate was removed by gel filtration chromatography (Sephadex G-75), and the intraliposomal radioactivity was measured by liquid scintillation. Transport was measured at 25 °C. […] Transport rates were measured in 10 min, i.e., within the initial linear range of the time course.

SMILES: O=C1C=C2C(=CCOC2O)O1 (stereo not drawn) [PAT, 4-hydroxy-4H-furo [3,2c] pyran-2 [6H] -one]
- inhibition at 60 µM ([1]; 60 µM PAT, 60 min, intact rat liver mitochondria, read-out: inhibition of CAC transport activity compared to control): ~50%
- recovery of transport activity on addition of GSH after PAT treatment ([1]; 60 µM PAT, then 5 mM GSH): did not lead to a recovery
- reversal of PAT binding by DTE ([1]; 5 mM DTE added 1 min before transport assay): No reverse binding
- effect of GSH added to mitochondria before PAT incubation on PAT inhibition ([1]; 5 mM GSH before 60 µM PAT): prevented
- IC50 ([1]; intact rat mitochondria): 60 µM
- IC50 [2]: 55 µM and ~50 µM
